Source: PubChem BioAssay (NCI)
Values joined by “and” are separate entries in the source; they are usually repeats but may differ in a detail not shown here. Equal entries are not always repeated.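 Exposure lasted 48 hours, with cells grown in 96-well plates and compounds tested at five concentrations. The concentration for 50% growth inhibition is given as GI50. TGI denotes the concentration required for complete inhibition of growth.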

Legend:
Experiment in all cases: DTP human tumour cell line panel, 48 h
HCT-116 colon = system: HCT-116 colon
UACC-257 melanoma = system: UACC-257 melanoma
OVCAR-5 ovarian = system: OVCAR-5 ovarian
786-0 renal = system: 786-0 renal
A498 renal = system: A498 renal
SK-MEL-5 melanoma = system: SK-MEL-5 melanoma
K-562 leukemia = system: K-562 leukemia
NCI-H23 lung = system: NCI-H23 lung
SK-MEL-28 melanoma = system: SK-MEL-28 melanoma
COLO 205 colon = system: COLO 205 colon

Row | SMILES | GI50 (HCT-116 colon) | TGI (HCT-116 colon) | GI50 (UACC-257 melanoma) [µM] | TGI (UACC-257 melanoma) | GI50 (OVCAR-5 ovarian) | TGI (OVCAR-5 ovarian) | GI50 (786-0 renal) | TGI (786-0 renal) | GI50 (A498 renal) [µM] | TGI (A498 renal) | GI50 (SK-MEL-5 melanoma) | TGI (SK-MEL-5 melanoma) | GI50 (K-562 leukemia) | TGI (K-562 leukemia) | GI50 (NCI-H23 lung) | TGI (NCI-H23 lung) | GI50 (SK-MEL-28 melanoma) [µM] | TGI (SK-MEL-28 melanoma) | GI50 (COLO 205 colon) | TGI (COLO 205 colon)
1 | CNCCCn1cc(C2=C(c3cn(C)c4ccccc34)C(=O)NC2=O)c2ccccc21 | 3.17 µM | 12.3 µM | 4.57 | 8.81 µM | 7.65 µM | 20.7 µM | 4.77 µM | 11.3 µM | 4.29 | 8.35 µM | 3.77 µM | 7.3 µM | 3.46 µM | 14.2 µM | 5.21 µM | 13.2 µM | 3.85 | 7.8 µM | 1.95 µM | 5.52 µM
2 | O=C(Nc1ccc(OS(=O)(=O)c2ccccc2)cc1)C12CC3CC(CC(C3)C1)C2 | 2.5 µM | > 100 µM | 13.5 | > 100 µM | > 100 µM | > 100 µM | 3.8 µM | > 100 µM | 2.04 | 48.7 µM | 3.12 µM | > 100 µM | 0.576 µM | > 100 µM | 6.68 µM | > 100 µM | > 100 | > 100 µM | 0.873 µM | > 100 µM
3 | C[As](C)SC1OC(CO)C(O)C1O (stereo unspecified) | 0.302 µM | 1.24 µM | 1.72 | 13.6 µM | 0.864 µM | 5.33 µM | 0.174 µM | 0.655 µM | 0.516 | 3.62 µM | 0.215 µM | 0.583 µM | 0.131 µM | 2.03 µM | 0.61 µM | 3.89 µM | 0.522 | 5.45 µM | 0.505 µM | 10.8 µM
4 | Cc1cc(Br)cc(C)c1NC(=O)C(=O)C(C(=O)c1ccc2ccccc2c1)C1OC(=O)c2ccccc21 (stereo unspecified) |  | 29.4 µM |  | 17.5 µM |  | 19.7 µM |  | 19.3 µM |  | 25.6 µM |  | 23.8 µM |  | > 72.9 µM |  | 13.6 µM |  | 14.2 µM |  | 50.9 µM
5 | O=c1n(CC2CO2)c(=O)n(CC2CO2)c(=O)n1CC1CO1 (stereo unspecified) | 12.3 µM and 10.2 µM | 43.9 µM and 88.6 µM and > 100 µM | 15.4 | 38.4 µM and 109 µM | 18.2 µM and 19.9 µM | 56 µM and 118 µM and 40.1 µM | 8.38 µM and 4.15 µM | 24.2 µM and 84.8 µM and > 100 µM | 12.2 | 83.9 µM and 26.5 µM | 16.8 µM and 25.3 µM and 9.6 µM | 37.3 µM and 79.6 µM and 75.6 µM | 40.3 µM and 26.5 µM | 308 µM and > 100 µM | 14.2 µM and 7.3 µM | 90.9 µM and > 100 µM | 22.7 | 139 µM and > 100 µM | 25 µM and 11.1 µM | 78.4 µM and 52.2 µM and 25.5 µM
6 | CC1OC2CC(=O)OC2C2=C1C(=O)c1c(O)cccc1C2=O (stereo unspecified) | 0.0286 µM | 0.107 µM | 0.0748 | 0.217 µM | 0.204 µM | 0.44 µM | 0.149 µM | 0.292 µM | 0.348 | 1.38 µM | 0.124 µM | 0.251 µM | 0.0298 µM | > 100 µM | 0.142 µM | 0.426 µM | 0.0548 | 0.191 µM | 0.0177 µM | 0.0405 µM
7 | CCC[CH2][Sn]([CH2]CCC)([CH2]CCC)[O]C(=O)CC | 0.138 µM | 0.294 µM | 0.145 | 0.296 µM | 0.154 µM | 0.387 µM | 0.151 µM | 0.295 µM | 0.12 | 0.256 µM | 0.139 µM | 0.27 µM | 0.237 µM |  | 0.149 µM | 0.615 µM | 0.161 | 0.318 µM | 0.178 µM | 0.372 µM
8 | CCN(CC)CCOc1ccc(/C=C(\C#N)c2ccc(OCCN(CC)CC)cc2)cc1 |  | 21.9 µM |  | 31.3 µM |  | > 66 µM |  | 25.5 µM |  | 32.2 µM |  | 15.9 µM |  | 23.5 µM |  | 42.6 µM |  | 32 µM |  | 23 µM
9 | CCCCN(CCCC)CC(C(=O)Nc1ccc([N+](=O)[O-])cc1[N+](=O)[O-])/C(C)=N\NC(=S)NN (stereo unspecified) |  | > 100 µM |  | > 100 µM |  | > 100 µM |  | > 100 µM |  | > 100 µM |  | > 100 µM |  | > 100 µM |  | > 100 µM |  | > 100 µM |  | > 100 µM
10 | O=C(OCc1ccc2cccc(O)c2n1)N1CCN(C(=O)c2cc3cc(F)ccc3[nH]2)CC1 | 0.357 µM | 1.32 µM | 1.46 | 2.89 µM | 1.7 µM | 3.16 µM | 1.42 µM | 2.82 µM | 1.71 | 3.25 µM | 1.69 µM | 3.07 µM | 0.435 µM | 2.4 µM | 1.62 µM | 3.45 µM | 1.68 | 3.05 µM | 0.622 µM | 2.07 µM
11 | Cc1nnc(S(=O)(=O)c2ccc(N=Nc3c(N)nc(N)nc3N)cc2)s1 |  | > 100 µM |  | > 100 µM |  | > 100 µM |  | > 100 µM |  | > 100 µM |  | > 100 µM |  | > 100 µM |  | > 100 µM |  | > 100 µM |  | > 100 µM
12 | CCOC(=O)Oc1c(OC)cc(C(=O)NC2CCc3cc(OC)c(OC)c(OC)c3-c3ccc(SC)c(=O)cc32)cc1OC (stereo unspecified) | < 0.007 µM | 0.311 µM and 0.0975 µM | < 0.007 | > 70 µM | > 70 µM | > 70 µM | 0.023 µM | 13 µM | 0.0206 | 0.514 µM and 0.0622 µM |  | 0.916 µM |  | 0.774 µM | < 0.007 µM | 0.266 µM and 0.0388 µM |  | > 70 µM | 0.0138 µM | 0.191 µM and 0.0613 µM
13 | CC1=Nc2ccccc2C1C(Cc1ccccc1N)c1c(C)[nH]c2ccccc12 (stereo unspecified) |  | 30.6 µM |  | 32.4 µM |  | 31.6 µM |  | 28.6 µM |  | 29.8 µM |  | 27.8 µM |  | 43.2 µM |  | 33.6 µM |  | 32.8 µM |  | 30.2 µM
14 | COc1ccc(C(=O)c2cc(OC)c(C)c(OC)c2)cc1OC(=O)CCl | 0.392 µM | > 38.3 µM | 14 | > 95.8 µM | 4.37 µM | > 100 µM | 3.65 µM | > 79.5 µM | 2.09 | 7.39 µM | 0.463 µM | 3.4 µM | 0.0538 µM | > 100 µM | 0.558 µM | > 100 µM | 0.732 | 40.4 µM | 7.78 µM | 69.4 µM
